In brackets after ≈: the same amount, converted by molar mass. Entries after “also recorded” stand apart in the source; their conditions may differ. Structures can show the parent of a compound that is named as a salt. Where two headings read alike, the source gives them in different places.
Tests used:
P-gp [1] = target: T1, P-gp (Homo sapiens, UniProt P08183); test: Rhodamine 123 efflux assay, HeL023 cells; assay type: cell-based; design: nearly all (100±1%) the cells expressing high level of functional P-gp; endogenous in cells; host or cells: HeL023 human erythroleukemia cells; settings: for inhibition of P-gp activity (in words): Rh123 efflux; for % of Rh123 negative cells: antagonist 10 μM, cells expressing P-gp activity
T1 sequence (P08183 whole entry): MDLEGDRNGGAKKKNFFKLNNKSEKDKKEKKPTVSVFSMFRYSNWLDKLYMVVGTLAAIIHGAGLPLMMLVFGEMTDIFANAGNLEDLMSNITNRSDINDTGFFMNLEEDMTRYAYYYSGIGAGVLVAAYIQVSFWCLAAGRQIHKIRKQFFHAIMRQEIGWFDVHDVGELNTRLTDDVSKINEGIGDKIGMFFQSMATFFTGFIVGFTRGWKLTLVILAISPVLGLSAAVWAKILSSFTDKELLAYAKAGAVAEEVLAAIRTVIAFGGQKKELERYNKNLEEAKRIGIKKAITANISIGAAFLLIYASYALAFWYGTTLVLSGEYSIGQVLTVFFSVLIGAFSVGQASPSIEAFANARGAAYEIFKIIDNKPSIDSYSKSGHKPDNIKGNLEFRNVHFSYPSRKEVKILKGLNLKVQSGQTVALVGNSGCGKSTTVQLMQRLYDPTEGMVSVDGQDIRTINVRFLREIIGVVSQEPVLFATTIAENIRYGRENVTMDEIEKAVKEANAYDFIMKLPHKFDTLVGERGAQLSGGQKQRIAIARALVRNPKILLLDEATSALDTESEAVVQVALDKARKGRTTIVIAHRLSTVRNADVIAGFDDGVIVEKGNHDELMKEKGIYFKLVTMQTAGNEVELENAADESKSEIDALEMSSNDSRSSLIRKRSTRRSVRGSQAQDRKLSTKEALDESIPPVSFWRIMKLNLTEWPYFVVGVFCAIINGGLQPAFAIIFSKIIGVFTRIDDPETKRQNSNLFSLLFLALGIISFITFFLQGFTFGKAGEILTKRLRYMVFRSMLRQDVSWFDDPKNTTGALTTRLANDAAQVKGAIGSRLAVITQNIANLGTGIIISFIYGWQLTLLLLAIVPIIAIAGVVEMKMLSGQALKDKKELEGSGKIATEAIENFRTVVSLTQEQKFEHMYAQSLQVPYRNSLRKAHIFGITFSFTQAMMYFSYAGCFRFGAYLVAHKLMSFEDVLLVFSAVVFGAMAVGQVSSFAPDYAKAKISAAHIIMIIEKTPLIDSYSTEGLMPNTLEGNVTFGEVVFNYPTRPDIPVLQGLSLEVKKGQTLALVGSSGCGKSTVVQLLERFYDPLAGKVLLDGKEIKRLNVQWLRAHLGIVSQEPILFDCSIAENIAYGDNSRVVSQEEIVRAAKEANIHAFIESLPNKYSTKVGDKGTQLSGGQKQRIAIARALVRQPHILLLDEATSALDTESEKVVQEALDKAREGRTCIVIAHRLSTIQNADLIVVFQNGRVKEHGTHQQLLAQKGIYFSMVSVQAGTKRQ
Description: (§1) 5×10^5 cells from each subline were loaded with 50 ng/ml of rhodamine 123 for 30 minutes at 37° C. in medium. The cells were washed and resuspended in dye-staining agent free medium for 3 hours at 37° C. to allow rhodamine 123 efflux. The cells were then washed twice and the fluorescence of intracellular rhodamine 123 were analysed with Flow cytometer (residual fluorescence FRES). The fluorescence was compared with loaded cells maintained at 4° C. to prevent drug export (maximal fluorescence FMAX). […] Cells from each subline that were not being exposed to rhodamine 123 were used as negative controls.
(§2) Rhodamine 123 (Rh 123) retention, a P-gp functional assay, was studied in all cell lines. This assay was performed by incubating cells with Rh 123 and determining Rh 123 accumulation by measuring its fluorescence. The maximum load of Rh 123 (FMAX) was quantified at the end of treatment harvesting the cells and storing them at 4° C. to prevent any active Rh123 efflux. The P-gp drug efflux was allowed incubating Rh 123-loaded cells in fresh new medium Rh 123-free for 3 hours at 37° C. After this incubation, residual fluorescence (FRES) was measured and compared to FMAx.

A375 melanoma cells = test: Colony formation assay; assay type: cell-based, human; settings: for colony formation: 7 days
Description: FIG. 2 illustrates colony formation assay of A375 cells. Cells were treated with different drugs and colonies were counted after 7 days. The values represent the mean±SEM of four independent experiments. D=DMSO (control); T=paclitaxel, 0.75 ng/ml; M=MRE 3008F20, 10 μM; C═CI-IB-MECA, 10 μM; TM=paclitaxel plus MRE 3008F20; TC=paclitaxel plus CI-IB-MECA treated cells. *P<0.01 TM versus T. Analysis was by ANOVA followed by Dunnett's test.;
Control plates received the same volume of DMSO alone. After 7 days of growth at 37° C. in humidified atmosphere containing 5% CO2, the cells were fixed with absolute methanol for 5′ and stained with 1/10 Giemsa/phosphate-buffered saline (PBS) staining solution for 10 minutes. Staining solution was removed and colonies of greater than 30 cells were scored as survivors. For each treatment, six individual wells were scored.

P-gp [2] = target: T1, P-gp; test: Rhodamine 123 efflux assay, A375 cells; assay type: cell-based; design: endogenous in cells
Description: as §1, §2

A375 cells = test: Metabolic (MEK, ERK, p38MAPK) inhibitors on G2/M arrest and apoptosis, flow cytometry; assay type: cell-based, human
Description: Jurkat, HeL023 and PBMC cells were centrifuged for 10 minutes at 1000×g. […] The cells were washed with PBS and the DNA was stained with a PBS solution, containing 20 μg/ml of propidium iodide and 100 μg/ml of RNAse, at room temperature for 30 minutes. Cells were analysed by FACScan (Becton-Dickinson) and the content of DNA was evaluated by the Cell-LISYS program (Becton-Dickinson). […] Briefly, the cell cycle distribution is shown as the percentage of cells containing 2n (G1 phase), 4n (G2 and M phases), 4n>x>2n. DNA amount (S phase) judged by propidium iodide staining. The apoptotic population is the percentage of cells with DNA content lower than 2n.
U01 26 was used at 10 μM as inhibitor of MEK-1 and MEK-2 to prevent extracellular signal-regulated kinase ERK-1 and ERK-2 activation.

[3] = tested on: human colon carcinoma HT29 cell line; test: MTT growth inhibitory assay, HT29; assay type: cell-based; settings: for IC50: Homo sapiens, HT-29, HT29 cells, read-out: IC50 of anti-neoplastic agent used jointly with A3 antagonist; for HT29 more refractory than the A375 cell line: ratio of IC50 HT29 vs A375
Description: (§3) The cells are sub-cultured twice a week.

[4] = tested on: human lung carcinoma SKMES cell line; test: MTT growth inhibitory assay, SKMES; assay type: cell-based; settings: SKMES cells, read-out: IC50 of anti-neoplastic agent used jointly with A3 antagonist
Description: as §3

Nc1nc2ccc(Cl)cc2c2nc(-c3ccco3)nn12 [CGS 15943, 5-amino-9-chloro-2-(furyl) 1,2,4-triazolo[1,5-c]quinazoline]
inhibition of P-gp activity (in words) (P-gp [1]): much lower effect on P-gp activity

CNC(=O)[C@H]1O[C@@H](n2cnc3c(NCc4cccc(I)c4)nc(Cl)nc32)[C@H](O)[C@@H]1O [CI-IB-MECA]
colony formation increased (A375 melanoma cells; CI-IB-MECA 10 μM alone vs DMSO control): about 30% | colony formation increased (A375 melanoma cells; CI-IB-MECA 10 μM combined with paclitaxel 0.75 ng/ml vs paclitaxel alone): 32% | colony formation (A375 melanoma cells; CI-IB-MECA 10 μM or MRE 3008F20 10 μM combined with paclitaxel 0.75 ng/ml): 85 % of control | colony formation (A375 melanoma cells; agent alone (CI-IB-MECA 10 μM; paclitaxel 0.75 ng/ml; MRE 3008F20 10 μM)): 130 % of control

CCN(CC)c1ccc(NC(=O)Nc2nc3nn(C)cc3c3nc(-c4ccco4)nn23)cc1 [IL-10, N-1-(4-diethylamino-phenyl)-N′-5-[8-methyl-2-(2-furyl)-pyrazolo [4,3-e]1,2,4-triazolo[1,5-c]pyrimidine]-urea]
inhibition of P-gp activity (in words) (P-gp [1]): strong inhibitors of P-gp activity | % of Rh123 negative cells (P-gp [1]): 0.4 ± 0.2%

CCCn1cc2c(nc(NC(=O)Nc3ccc(OC)cc3)n3nc(-c4ccco4)nc23)n1 [MRE3008F20, 5-[[(4-Methoxyphenyl)amino]carbonyl]amino-8-propyl-2-(2-furyl)-pyrazolo[4,3-e]1,2,4-triazolo[1,5-c]pyrimidine]
inhibition of P-gp activity (in words) (P-gp [1]): near total P-gp inhibition; also recorded: strong inhibitors of P-gp activity | % of Rh123 negative cells (P-gp [1]): 0.5 ± 0.3% | P-gp mediated Rh123 transport (in words) (P-gp [2]; MRE3008F20 10 μM): completely blockade of P-gp mediated Rh123 transport

Cc1ccc(NC(=O)Nc2nc3nn(C)cc3c3nc(-c4ccco4)nn23)cc1 [MRE 3046F20, 5-N-(4-methylphenyl-carbamoyl)amino-8-methyl-2 (2-furyl)-pyrazolo-[4,3e]-1,2,4-triazolo[1,5-c]pyrimidine]
inhibition of P-gp activity (in words) (P-gp [1]): strong inhibitors of P-gp activity

CCCn1cc2c(nc(NC(=O)Nc3ccccc3)n3nc(-c4ccco4)nc23)n1 [MRE 3055F20, 5-N-(4-phenylcarbamoyl)amino-8-propyl-2 (2furyl)-pyrazolo[4,3e]-1,2,4triazolo-[1,5c]pyrimidine]
inhibition of P-gp activity (in words) (P-gp [1]): strong inhibitors of P-gp activity

CCCCn1cc2c(nc(NC(=O)Nc3ccccc3)n3nc(-c4ccco4)nc23)n1 [MRE 3062F20, 5-N-(4-phenyl-carbamoyl)amino-8-butyl-2(2furyl)-pyrazolo-[4,3e]-1,2,4triazolo[1,5-c]pyrimidine]
inhibition of P-gp activity (in words) (P-gp [1]): strong inhibitors of P-gp activity | % of Rh123 negative cells (P-gp [1]): 1.0 ± 0.2%

C[S+]([O-])c1ccc(-c2nc(-c3ccncc3)c(-c3ccc(F)cc3)[nH]2)cc1 (centres unmarked) [SB203580]
G2/M accumulation rate of inhibitor plus paclitaxel or vindesine respect to paclitaxel or vindesine alone (in words) (A375 cells): did not alter

N#CC(=C(/N)Sc1ccccc1N)/C(C#N)=C(\N)Sc1ccccc1N [U0126]
effect on MRE 3008F20 blockade of P-gp (in words) (P-gp [2]; U0126 30 μM for 30 minutes, then MRE3008F20 10 μM): failed to prevent | G2/M accumulation rate of inhibitor plus paclitaxel or vindesine respect to paclitaxel or vindesine alone (in words) (A375 cells; A375, PD98059 20 μM, U0126 30 μM, SB203580 1 μM): did not alter

Nc1nc(NCCc2ccc(O)cc2)nc2nc(-c3ccco3)nn12 [ZM 241385, 4-(2-[7-amino-2-(2-furyl)-[1,2,4]triazolo[2,3-a][1,3,5]triazin-5-ylamino]ethyl)phenol]
inhibition of P-gp activity (in words) (P-gp [1]): much lower effect on P-gp activity

COc1cccc2c1C(=O)c1c(O)c3c(c(O)c1C2=O)C[C@@](O)(C(=O)CO)C[C@@H]3O[C@H]1C[C@H](N)[C@H](O)[C@H](C)O1 [doxorubicin]
IC50 ([3]; with IL-10 0.5 μg/ml): 0.31 µg/mL (≈ 0.57 µM) | IC50 ([3]; with IL-11 0.5 μg/ml): 0.38 µg/mL (≈ 0.699 µM) | IC50 ([3]; with MRE3008F20 1 μg/ml): 0.28 µg/mL (≈ 0.515 µM) | HT29 more refractory than the A375 cell line [3]: approximately 30 fold

CCc1c2c(nc3ccc(OC(=O)N4CCC(N5CCCCC5)CC4)cc13)-c1cc3c(c(=O)n1C2)COC(=O)[C@]3(O)CC [irinotecan HCL]
IC50 ([3]; with IL-10 0.5 μg/ml): 0.77 µg/mL | IC50 ([3]; with IL-11 0.5 μg/ml): 0.85 µg/mL | IC50 ([3]; with MRE3008F20 1 μg/ml): 0.53 µg/mL | IC50 ([4]; with IL-10 0.5 μg/ml): 0.67 µg/mL | IC50 ([4]; with IL-11 0.5 μg/ml): 0.061 µg/mL | IC50 ([4]; with MRE3008F20 1 μg/ml): 0.57 µg/mL

O=C1c2c(O)ccc(O)c2C(=O)c2c(NCCNCCO)ccc(NCCNCCO)c21 [mitoxantrone]
HT29 more refractory than the A375 cell line [3]: approximately 30 fold

CC[C@]1(O)C[C@@H]2CN(CCc3c([nH]c4ccccc34)[C@@](C(=O)OC)(c3cc4c(cc3OC)N(C)[C@H]3[C@@](O)(C(=O)OC)[C@H](OC(C)=O)[C@]5(CC)C=CCN6CC[C@]43[C@@H]65)C2)C1 [vinblastine]
IC50 ([4]; with IL-10 0.5 μg/ml): 0.0011 µg/mL (≈ 0.00136 µM) | IC50 ([4]; with IL-11 0.5 μg/ml): 0.00094 µg/mL (≈ 0.00116 µM) | IC50 ([4]; with MRE3008F20 1 μg/ml): 0.0013 µg/mL (≈ 0.0016 µM)

Source: patent US20050119289A1 (priority 2002, published 2005)
